Legend:
HCT-116 [1] = test: Intrinsic cytotoxic activity against wild type HCT116 cell line; format: functional, cell-based; conditions: Homo sapiens
HCT-116 [2] = test: Multi drug resistance reversal in HCT116/VM46 cell line treated with Doxorubicin; format: functional, Homo sapiens
HCT-116 [3] = test: inhibitory activity of compound against multidrug resistant HCT116/VM46 cell line treated with Vinblastine; format: functional, cell-based; conditions: Homo sapiens
HCT-116 [4] = test: inhibitory activity of compound against multidrug resistance HCT116/VM46 cell line treated with Doxorubicin; format: functional, cell-based; conditions: Homo sapiens
HCT-116 [5] = test: Intrinsic cytotoxic activity against multidrug resistant HCT116/VM46 cell line; format: functional, cell-based; conditions: Homo sapiens
HCT-116 [6] = test: Multi drug resistance reversal in HCT116/VM46 cell line treated with Vinblastine; format: functional, Homo sapiens
HCT-116 [7] = test: inhibitory activity of compound against Multidrug resistant HCT116/VM46 cell line treated with Vinblastine; format: functional, cell-based; conditions: Homo sapiens
HCT-116 [8] = test: Intrinsic cytotoxic activity against Multidrug resistant HCT116/VM46 cell line; format: functional, cell-based; conditions: Homo sapiens
HCT-116 [9] = test: inhibitory activity of compound against Multidrug resistance HCT116/VM46 cell line treated with Doxorubicin; format: functional, cell-based; conditions: Homo sapiens
HCT-116 [10] = test: inhibitory activity against Multidrug resistant HCT116/VM46 cell line treated with Vinblastine at a compound concentration 7.5 uM; format: functional, cell-based; conditions: Homo sapiens
HCT-116 [11] = test: Multi drug resistance reversal in HCT116/VM46 cell line treated with Doxorubicin at a compound concentration 7.5 uM; format: functional, Homo sapiens
HCT-116 [12] = test: inhibitory activity of compound against Multidrug resistant HCT116/VM46 cell line treated with Doxorubicin at a compound concentration 7.5 uM; format: functional, cell-based; conditions: Homo sapiens
HCT-116 [13] = test: Multi drug resistance reversal in HCT116/VM46 cell line treated with Vinblastine at a compound concentration 7.5 uM; format: functional, Homo sapiens

IC50 (HCT-116 [3]) [nM] | IC50 (HCT-116 [4]) [nM] | IC50 (HCT-116 [7]) [nM] | IC50 (HCT-116 [9]) [nM] | IC50 (HCT-116 [10]) [nM] | IC50 (HCT-116 [12]) [nM] | Compound | IC50 (HCT-116 [1]) [nM] | Reversion (HCT-116 [2]) [%] | IC50 (HCT-116 [5]) [nM] | Reversion (HCT-116 [6]) [%] | IC50 (HCT-116 [8]) [nM] | Reversion (HCT-116 [11]) [%] | Reversion (HCT-116 [13]) [%]
4 | 100 | – | – | – | – | COc1ccc(C2CC2NNC(=O)c2c(-c3ccc(OC)c(OC)c3)c3c4cc(OC)c(OC)cc4oc(=O)c3n2CCc2ccc(OC)c(OC)c2)cc1 (stereo not drawn) | > 100000 | 100 | > 100000 | 100 | – | – | –
– | – | 4 | 100 | – | – | COc1ccc(CCn2c(C(=O)NNCCc3cccs3)c(-c3ccc(OC)c(OC)c3)c3c4cc(OC)c(OC)cc4oc(=O)c32)cc1OC | > 100000 | 100 | – | 100 | > 100000 | – | –
– | – | 9 | 150 | – | – | COCCN(CCOC)NC(=O)c1c(-c2ccc(OC)c(OC)c2)c2c3cc(OC)c(OC)cc3oc(=O)c2n1CCc1ccc(OC)c(OC)c1 | 25000 | 50 | – | 45 | 15000 | – | –
– | – | 2 | 100 | – | – | COc1cccc(CCNNC(=O)c2c(-c3ccc(OC)c(OC)c3)c3c4cc(OC)c(OC)cc4oc(=O)c3n2CCc2ccc(OC)c(OC)c2)c1 | 25000 | 100 | – | 200 | 5000 | – | –
– | – | 8 | 180 | – | – | COc1ccc(CCn2c(C(=O)NN[C@@H](C)C(=O)OC(C)(C)C)c(-c3ccc(OC)c(OC)c3)c3c4cc(OC)c(OC)cc4oc(=O)c32)cc1OC | 7000 | 55 | – | 50 | 4000 | – | –
– | – | 50 | 750 | – | – | COc1ccc(CCn2c(C(=O)NCCNC(=O)c3c(-c4ccc(OC)c(OC)c4)c4c5cc(OC)c(OC)cc5oc(=O)c4n3CCc3ccc(OC)c(OC)c3)c(-c3ccc(OC)c(OC)c3)c3c4cc(OC)c(OC)cc4oc(=O)c32)cc1OC | > 100000 | 10 | – | 10 | > 100000 | – | –
– | – | 2 | – | – | – | COC(=O)c1c(-c2ccc(OC)c(OC)c2)c2c3cc(OC)c(OC)cc3oc(=O)c2n1CCc1ccc(OC)c(OC)c1 | – | – | – | 100 | – | – | –
– | – | 6 | 100 | – | – | COc1ccc(CCn2c(C(=O)NN3CCC4(CC3)OCCO4)c(-c3ccc(OC)c(OC)c3)c3c4cc(OC)c(OC)cc4oc(=O)c32)cc1OC | 15000 | 100 | – | 67 | 10000 | – | –
– | – | 4 | 100 | – | – | COc1ccc(CCn2c(C(=O)NNCCc3c[nH]c4ccccc34)c(-c3ccc(OC)c(OC)c3)c3c4cc(OC)c(OC)cc4oc(=O)c32)cc1OC | > 100000 | 100 | – | 100 | > 100000 | – | –
– | – | 4 | 100 | – | – | COc1ccc(CCNNC(=O)c2c(-c3ccc(OC)c(OC)c3)c3c4cc(OC)c(OC)cc4oc(=O)c3n2CCc2ccc(OC)c(OC)c2)cc1OC | 5000 | 100 | – | 100 | 5000 | – | –
– | – | 4 | 120 | – | – | COc1ccc(CNNC(=O)c2c(-c3ccc(OC)c(OC)c3)c3c4cc(OC)c(OC)cc4oc(=O)c3n2CCc2ccc(OC)c(OC)c2)cc1 | 40000 | 80 | – | 100 | 30000 | – | –
– | – | 4 | 120 | – | – | COc1ccc(CCn2c(C(=O)NNC(c3ccccc3)c3ccccc3)c(-c3ccc(OC)c(OC)c3)c3c4cc(OC)c(OC)cc4oc(=O)c32)cc1OC | 25000 | 80 | – | 100 | 15000 | – | –
– | – | 2 | 100 | – | – | COc1ccc(OC)c(CCNNC(=O)c2c(-c3ccc(OC)c(OC)c3)c3c4cc(OC)c(OC)cc4oc(=O)c3n2CCc2ccc(OC)c(OC)c2)c1 | 25000 | 100 | – | 200 | 10000 | – | –
– | – | 7 | 240 | – | – | COc1ccc(CCn2c(C(=O)NN)c(-c3ccc(OC)c(OC)c3)c3c4cc(OC)c(OC)cc4oc(=O)c32)cc1OC | > 100000 | 40 | – | 60 | > 100000 | – | –
– | – | 10 | 180 | – | – | COc1ccc(CCn2c(C(=O)NNCCc3ccc(O)cc3)c(-c3ccc(OC)c(OC)c3)c3c4cc(OC)c(OC)cc4oc(=O)c32)cc1OC | 15000 | 55 | – | 25 | 10000 | – | –
– | – | 2 | 60 | – | – | COc1ccc(CCNNC(=O)c2c(-c3ccc(OC)c(OC)c3)c3c4cc(OC)c(OC)cc4oc(=O)c3n2CCc2ccc(OC)c(OC)c2)cc1 | 20000 | 167 | – | 200 | 10000 | – | –
– | – | 5 | 100 | – | – | COC(=O)[C@H](CCCNNC(=O)c1c(-c2ccc(OC)c(OC)c2)c2c3cc(OC)c(OC)cc3oc(=O)c2n1CCc1ccc(OC)c(OC)c1)NC(=O)OCc1ccccc1 | 45000 | 100 | – | 80 | 40000 | – | –
– | – | 10 | 200 | – | – | COc1ccc(CCn2c(C(=O)NNCCCCCCSC(C)=O)c(-c3ccc(OC)c(OC)c3)c3c4cc(OC)c(OC)cc4oc(=O)c32)cc1OC | 20000 | 50 | – | 25 | 35000 | – | –
– | – | 4 | 100 | – | – | COc1ccc(CCn2c(C(=O)NNCCc3ccc(F)cc3)c(-c3ccc(OC)c(OC)c3)c3c4cc(OC)c(OC)cc4oc(=O)c32)cc1OC | 30000 | 100 | – | 100 | 20000 | – | –
– | – | 2 | 100 | 0.2 | 10 | COc1ccc(CCn2c(C(=O)N(C)C)c(-c3ccc(OC)c(OC)c3)c3c4cc(OC)c(OC)cc4oc(=O)c32)cc1OC | 25000 | 100 | – | 100 | 20000 | 1000 | 1000
– | – | 30 | 450 | – | – | COc1ccc(CCn2c(C(=O)NCCCCCCNC(=O)c3c(-c4ccc(OC)c(OC)c4)c4c5cc(OC)c(OC)cc5oc(=O)c4n3CCc3ccc(OC)c(OC)c3)c(-c3ccc(OC)c(OC)c3)c3c4cc(OC)c(OC)cc4oc(=O)c32)cc1OC | > 100000 | 20 | – | 15 | > 100000 | – | –
– | – | 2 | – | – | – | COc1ccc(CCn2cc(-c3ccc(OC)c(OC)c3)c3c4cc(OC)c(OC)cc4oc(=O)c32)cc1OC | – | – | – | 100 | – | – | –
– | – | 20 | 500 | – | – | COc1ccc(CCN(C)CCCC(C#N)(c2ccc(OC)c(OC)c2)C(C)C)cc1OC (stereo not drawn) | – | 20 | – | 10 | – | – | –
– | – | – | – | – | – | CC[C@]1(O)C[C@@H]2CN(CCc3c([nH]c4ccccc34)[C@@](C(=O)OC)(c3cc4c(cc3OC)N(C)[C@H]3[C@@](O)(C(=O)OC)[C@H](OC(C)=O)[C@]5(CC)C=CCN6CC[C@]43[C@@H]65)C2)C1 [VINBLASTINE] | 4 | – | – | – | – | – | –

From ChEMBL document CHEMBL1137986, “Multidrug resistance reversal activity of permethyl ningalin B amide derivatives” (Bioorg Med Chem Lett, 2004)
